In patent US8338565B2, “Macrocyclic compounds for inhibition of tumor necrosis factor alpha” (Ensemble Therapeutics Corporation, priority 2008, dated 2012):
Like-named read-outs stand apart in the source and are kept apart here. Numbered stars: 1 amine (or outer) side, 2 acyl side, 3 side chain; on linkers, the order of the positions; unused ones are H or OH. Bridge positions count the residues as written; N and C are the ends. Square brackets hold non-standard residues; d marks the D form. Peptide text beside a SMILES is read from it. Phe(4-CF3) = N[C@@H](Cc1ccc(C(F)(F)F)cc1)C(=O)O; Bip = N[C@@H](Cc1ccc(-c2ccccc2)cc1)C(=O)O; dPhe(4-NH2) = Nc1ccc(C[C@@H](N)C(=O)O)cc1; dPhe(4-Cl) = N[C@H](Cc1ccc(Cl)cc1)C(=O)O; Phe(4-NH2) = Nc1ccc(C[C@H](N)C(=O)O)cc1; dPhe(4-F) = N[C@H](Cc1ccc(F)cc1)C(=O)O; d(hPhe) = N[C@H](CCc1ccccc1)C(=O)O; d3Pal = N[C@H](Cc1cccnc1)C(=O)O; 2Thi = N[C@@H](Cc1cccs1)C(=O)O; d2Thi = N[C@H](Cc1cccs1)C(=O)O; Suc = O=C(CCC(=O)[*:2])[*:1]; Ac3c = NC1(C(=O)O)CC1; GABA = NCCCC(=O)O

Molecular target: T1, TNFα / TNFα receptor (TNFα R1/Fc) (Homo sapiens, UniProt P01375)
T1 construct: purchased R&D Systems
T1 sequence (P01375 77-233 limits assumed, species assumed): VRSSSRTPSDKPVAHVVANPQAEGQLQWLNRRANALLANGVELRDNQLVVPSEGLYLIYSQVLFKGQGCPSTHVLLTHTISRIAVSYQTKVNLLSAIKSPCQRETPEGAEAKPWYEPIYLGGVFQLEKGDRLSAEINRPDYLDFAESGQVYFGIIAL
Assay: Inhibition of binding of TNFα to the TNFα receptor (plate ELISA competition)
Conditions: Table 2
In short: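 Compound dilutions were preincubated 30 min at RT with 8.33 nM TNFα R1/Fc in PBST with 2% DMSO, then added to wells coated with 15 nM TNFα for 30 min. Bound receptor was detected with HRP anti-human Fc and TMB, read as A450.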

[1] = read-out: Activity (IC50, inhibition of TNFα binding to TNFα R1/Fc)
[2] = Activity (IC50, inhibition of TNFα binding to TNFα R1/Fc)

| Structure (SMILES) | IC50 [1] [µM] | IC50 [2] [µM] |
| --- | --- | --- |
| O=C1COc2ccc(cc2)C[C@@H](C(=O)O)NC(=O)[C@@H](Cc2ccc(O)cc2)NC(=O)[C@H](Cc2ccc(-c3ccccc3)cc2)NC(=O)[C@@H](Cc2cccs2)N1 [Compound 534] | > 100 | – |
| O=C1COc2ccc(cc2)C[C@@H](C(=O)O)NC(=O)[C@@H](CCc2ccccc2)NC(=O)[C@H](Cc2ccc(-c3ccc(C(=O)OCc4ccccc4)cc3)cc2)NC(=O)[C@@H](Cc2cccs2)N1 [Compound 526] | > 100 | – |
| COc1ccc(C[C@@H]2NC(=O)COc3ccc(cc3)C[C@@H](C(=O)O)NC(=O)[C@H](CCc3ccccc3)NC(=O)[C@@H](Cc3ccc(-c4ccccc4)cc3)NC2=O)cc1 [Compound 681] | < 10 | – |
| O=C(O)CN(Cc1ccccc1)C(=O)[C@@H]1Cc2ccc(cc2)OCC(=O)N[C@@H](Cc2cccs2)C(=O)N[C@@H](Cc2ccc(-c3ccccc3)cc2)C(=O)N[C@@H](Cc2ccccc2)C(=O)N1 [Compound 340] | < 10 | – |
| O=C(O)CC[C@H](NC(=O)[C@@H]1Cc2ccc(cc2)OCC(=O)N[C@H](Cc2cccs2)C(=O)N[C@@H](Cc2ccc(-c3ccccc3)cc2)C(=O)N[C@H](CCc2ccccc2)C(=O)N1)C(=O)O [Compound 308] | > 100 | – |
| O=C1CCC(=O)N[C@H](Cc2cccs2)C(=O)N[C@@H](Cc2ccc(-c3ccccc3)cc2)C(=O)N[C@H](Cc2ccc(Cl)cc2)C(=O)N[C@H](C(=O)O)Cc2ccc(cc2)N1 [Compound 81] ([d2Thi][Bip][dPhe(4-Cl)][Phe(4-NH2)]-OH; linker N-4 via Suc) | > 100 | – |
| O=C1COc2ccc(cc2)C[C@@H](C(=O)N[C@@H](Cc2ccccc2)C(=O)O)NC(=O)[C@H](CCc2ccccc2)NC(=O)[C@@H](Cc2ccc(-c3ccccc3)cc2)NC(=O)[C@H](Cc2ccncc2)N1 [Compound 554] | – | < 10 |
| O=C1COc2ccc(cc2)C[C@H](C(=O)O)NC(=O)[C@H](CCc2ccccc2)NC(=O)[C@@H](Cc2ccc(-c3ccccc3)cc2)NC(=O)[C@H](Cc2c[nH]c3ccccc23)N1 [Compound 730] | < 10 | – |
| O=C1CCC(=O)N[C@H](CCc2ccccc2)C(=O)N[C@@H](Cc2ccc(C(F)(F)F)cc2)C(=O)N[C@H](Cc2ccccc2)C(=O)N[C@@H](C(=O)N[C@H](Cc2ccccc2)C(=O)O)Cc2ccc(cc2)N1 [Compound 13] ([d(hPhe)][Phe(4-CF3)][dF][dPhe(4-NH2)][dF]-OH; linker N-4 via Suc) | > 100 | – |
| O=C1COc2ccc(cc2)C[C@@H](C(=O)O)NC(=O)[C@H](Cc2ccc(-c3ccccc3)cc2)NC(=O)[C@@H](Cc2ccc(-c3ccccc3)cc2)NC(=O)[C@H](Cc2cccs2)N1 [Compound 726] | 30 to 100 | – |
| O=C(O)[C@@H]1Cc2ccc(cc2)NC(=O)[C@@H]2CCCC[C@H]2C(=O)N[C@H](Cc2cccs2)C(=O)N[C@@H](Cc2ccc(-c3ccccc3)cc2)C(=O)N[C@H](Cc2ccccc2)C(=O)N1 [Compound 9] | 10 to 30 | – |
| COc1ccc(C[C@H]2NC(=O)COc3ccc(cc3)C[C@@H](C(=O)O)NC(=O)[C@@H](CCc3ccccc3)NC(=O)[C@H](Cc3ccc(-c4ccccc4)cc3)NC2=O)cc1 [Compound 522] | > 100 | – |
| COc1ccc(C[C@@H]2NC(=O)[C@@H](Cc3cccs3)NC(=O)COc3ccc(cc3)C[C@@H](C(=O)O)NC(=O)[C@@H](CCc3ccccc3)NC2=O)cc1OC [Compound 540] | > 100 | – |
| O=C1COc2ccc(cc2)C[C@@H](C(=O)O)NC(=O)[C@H](CCc2ccccc2)NC(=O)[C@@H](Cc2ccc(-c3ccncc3)cc2)NC(=O)[C@H](Cc2cccs2)N1 [Compound 658] | – | < 10 |
| NCCCC(=O)N[C@H]1CC(=O)Nc2ccc(cc2)C[C@@H](C(=O)N[C@@H](Cc2ccccc2)C(=O)O)NC(=O)[C@@H](Cc2ccccc2)NC(=O)[C@H](Cc2ccc(-c3ccccc3)cc2)NC(=O)[C@@H](Cc2cccs2)NC1=O [Compound 529] (H-[GABA]D[d2Thi][Bip][dF][Phe(4-NH2)]F-OH; lactam 2-6) | > 100 | – |
| O=C1CCC(=O)N[C@H](Cc2ccc(F)cc2)C(=O)N[C@@H](Cc2ccc(C(F)(F)F)cc2)C(=O)N[C@H](Cc2ccccc2)C(=O)N[C@H](C(=O)O)Cc2ccc(cc2)N1 [Compound 134] ([dPhe(4-F)][Phe(4-CF3)][dF][Phe(4-NH2)]-OH; linker N-4 via Suc) | > 100 | – |
| O=C1COc2ccc(cc2)C[C@@H](C(=O)NCCCS(=O)(=O)O)NC(=O)[C@H](CCc2ccccc2)NC(=O)[C@@H](Cc2ccc(-c3ccccc3)cc2)NC(=O)[C@H](Cc2cccs2)N1 [Compound 603] | > 100 | – |
| O=C1COc2ccc(cc2)C[C@@H](C(=O)O)NC(=O)[C@@H](Cc2ccccc2)NC(=O)[C@H](Cc2ccc(C(F)(F)F)cc2)NC(=O)[C@@H](CCc2ccccc2)N1 [Compound 216] | > 100 | – |
| O=C1CCC(=O)N[C@H](Cc2cccs2)C(=O)N[C@@H](Cc2ccc(-c3ccccc3)cc2)C(=O)N[C@H](Cc2ccccc2)C(=O)N[C@H](C(=O)O)CCCCN1 [Compound 42] ([d2Thi][Bip][dF]K-OH; linker N-4 via Suc) | > 100 | – |
| O=C1CCC(=O)N[C@H](CCc2ccccc2)C(=O)N[C@@H](Cc2ccc(C(F)(F)F)cc2)C(=O)N[C@H](Cc2ccccc2)C(=O)N[C@@H](C(=O)NC2(C(=O)O)CC2)Cc2ccc(cc2)N1 [Compound 17] ([d(hPhe)][Phe(4-CF3)][dF][dPhe(4-NH2)][Ac3c]-OH; linker N-4 via Suc) | 10 to 30 | – |
| Nc1ccc(C[C@H](NC(=O)[C@@H]2Cc3ccc(cc3)NC(=O)CCC(=O)N[C@H](CCc3ccccc3)C(=O)N[C@@H](Cc3ccc(-c4ccccc4)cc3)C(=O)N[C@H](Cc3ccccc3)C(=O)N2)C(=O)O)cc1 [Compound 505] ([d(hPhe)][Bip][dF][Phe(4-NH2)][Phe(4-NH2)]-OH; linker N-4 via Suc) | 10 to 30 | – |
| CC(=O)NCCCC[C@@H]1NC(=O)[C@H](Cc2ccc(-c3ccccc3)cc2)NC(=O)[C@H](Cc2cccs2)NC(=O)COc2ccc(cc2)C[C@@H](C(=O)O)NC1=O [Compound 256] | > 100 | – |
| O=C(O)CNC(=O)[C@@H]1Cc2ccc(cc2)OCC(=O)N[C@@H](Cc2cccs2)C(=O)N[C@H](Cc2ccc(-c3ccccc3)cc2)C(=O)N[C@@H](CCc2ccccc2)C(=O)N1 [Compound 472] | < 10 | – |
| O=C(O)[C@@H]1Cc2ccc(cc2)NC(=O)[C@H](O)[C@@H](O)C(=O)N[C@H](Cc2cccs2)C(=O)N[C@@H](Cc2ccc(-c3ccccc3)cc2)C(=O)N[C@@H](Cc2ccccc2)C(=O)N1 [Compound 268] | > 100 | – |
| O=C1COc2ccc(cc2)C[C@@H](C(=O)N[C@H](CO)C(=O)O)NC(=O)[C@H](CCc2ccccc2)NC(=O)[C@@H](Cc2ccc(-c3ccccc3)cc2)NC(=O)[C@H](Cc2ccc(-c3ccccc3)cc2)N1 [Compound 571] | < 10 | – |
| O=C1CCC(=O)N[C@H](Cc2cccs2)C(=O)N[C@@H](Cc2ccc(-c3ccccc3)cc2)C(=O)N[C@H](Cc2cccnc2)C(=O)N[C@H](C(=O)O)Cc2ccc(cc2)N1 [Compound 51] ([d2Thi][Bip][d3Pal][Phe(4-NH2)]-OH; linker N-4 via Suc) | > 100 | – |
| O=C1CCC(=O)N[C@H](Cc2cccs2)C(=O)N[C@@H](Cc2cccs2)C(=O)N[C@H](Cc2ccccc2)C(=O)N[C@H](C(=O)O)Cc2ccc(cc2)N1 [Compound 97] ([d2Thi][2Thi][dF][Phe(4-NH2)]-OH; linker N-4 via Suc) | > 100 | – |
| O=C1CCC(=O)N[C@H](Cc2c[nH]c3ccccc23)C(=O)N[C@@H](Cc2ccc(-c3ccccc3)cc2)C(=O)N[C@H](Cc2ccccc2)C(=O)N[C@H](C(=O)O)Cc2ccc(cc2)N1 [Compound 125] ([dW][Bip][dF][Phe(4-NH2)]-OH; linker N-4 via Suc) | > 100 | – |
